Earlier results, collected in patent US20090018199A1, “Methods of Administering 3, 3, 14, 14 Tetramethyl Hexadecane 1, 16 Dioic Acid” (SYNDROME X LTD., priority 2003, published 2009).

System: patients
Conditions: follow-up 15 years total, patients randomized to niacin

O=C(O)c1cccnc1 [Niacin, niacin]
decrease in all-cause mortality: 11%
